Several values for one entry are separate records, joined by “and”; a condition that tells them apart may be missing. Equal values may be shown once.
System: 521955-158-R2-J5-PDC complex spheroids, viability
Assay: Anticancer human tumor 521955-158-R2-J5-PDC patient-derived pancreatic carcinoma cell line growth inhibition [RAS]
Settings: for viability, T/C: stronger effect = lower value
Source text: RAS pathway inhibitors in Combinations in Complex Spheroids
A high-throughput screen of multi-cell type tumor spheroids was designed to identify active combinations of RAS pathway inhibitors and targeted small molecules. Complex spheroids include a stromal component modeled by human endothelial cells (HUVEC) and fibroblasts modeled by human mesenchymal stem cells (MSCs). The concentration ranges selected for each drug and investigational agent were based upon clinically achievable concentrations if the clinical Cmax of the agent was known.
Compounds. The drugs and investigational agents: abemaciclib (NSC768073), cobimetinib (NSC768068), divarasib (GDC6063, NSC841802), docetaxel (NSC628503), GDC-1971 (RLY-1971, NSC841576), gemcitabine (NSC613327), inavolisib (NSC800729), ipatasertib (NSC767898), KB-0742 (NSC834161), MRTX-1133 (NSC836407), osimertinib (NSC779217), RMC-4630 (NSC839698), RMC-6236 (NSC851965), RMC-6291 (NSC852671), Ro-3306 (NSC812927), sapanisertib (NSC764658), SN-38 (NSC673596), staurosporine (NSC755774), SY5609 (NSC837396), and tovorafenib (DAY101, NSC766906), were obtained from the National Cancer Institute (NCI) Developmental Therapeutics Program Chemical Repository. The FDA-approved anticancer drug set is available from the NCI Developmental Therapeutics Program. […] The stock solutions were prepared in dimethyl sulfoxide (DMSO, Sigma-Aldrich, St. Louis, MO, cat. D2650) at 800-fold the tested concentration and stored at -70 degrees C prior to their use. All drugs and investigational agents were tested over a range starting from a high concentration at or near the clinical Cmax and decreasing in half-log increments. If the clinical Cmax for an agent had not been determined, the highest concentration tested was 10 microM.
Cell Culture. All cells were maintained in an incubator at 37 degrees C and 5% CO2 with 95% humidity. The PDC lines were cultured according to standard operating procedures established by the NCI PDMR. All PDCs were thawed and cultured in Matrigel-coated flasks prepared with a working solution of 1X Ham's F-12 nutrient mix, without supplementation (Invitrogen, Waltham, MA, cat. 11765054), 100 U/mL penicillin-streptomycin (Invitrogen, cat. 15140122), and 2.5% Matrigel (Corning Inc., Corning, NY, cat. 354248) for the first three passages. The 362531-283-R-J2-PDC and 782815-120-R-J1-PDC lines were cultured in 6C/Colon 1B media, which includes advanced DMEM/F-12 (Thermo Fisher Scientific, cat. 12634028), 10 mM HEPES (Thermo Fisher Scientific, cat. 15630080), 1X GlutaMAX supplement (Thermo Fisher Scientific, cat. 35050061), 0.1 mg/mL primocin (InvivoGen, San Diego, CA, cat. ant-pm-2), 10% defined fetal bovine serum, heat inactivated (HyClone Laboratories Inc., Logan, UT, cat. SH30070.03HI), 50% L-WRN conditioned media (ATCC, cat. CRL-3276), 1.25 mM N-Acetyl-L-cysteine (Sigma-Aldrich, cat. A9165), 10 mM nicotinamide (Sigma-Aldrich, cat. N0636), 1X B-27 supplement (Thermo Fisher Scientific, cat. 17504044), 1X N-2 supplement (Thermo Fisher Scientific, cat. 17502048), 50 ng/mL human EGF (Thermo Fisher Scientific, cat. PHG0311), and 10 microM Y-27632 dihydrochloride (Tocris Bioscience, cat. 1254). The K12877-001-R-J1-PDC line was cultured in 6I media, which includes all 6C/Colon 1B media plus 10 ng/mL human FGF-10 (PeproTech, cat. 100-26), 1 ng/mL human FGF-2 (PeproTech, cat. 100-18B), 1 µM prostaglandin E2 (Tocris Bioscience, cat. 2296), […] hydrocortisone (Sigma-Aldrich, cat. H4001), and […] bovine insulin (Sigma-Aldrich, cat. I6634). The K86415-001-R-J1-PDC line was cultured in 6D media, which includes all 6C/Colon 1B media components minus the L-WRN conditioned media. The 485176-168-R4-J1-PDC was cultured in PANC media, which includes all 6C/Colon 1B media plus 100 ng/mL human FGF-10 (PeproTech, cat. 100-26), 500 nM SB-431542 (Selleckchem, cat. S1067), and 10 nM gastrin (Tocris Bioscience, cat. 3006). […]
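Note: compound exposure lasted seven days before the viability read.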
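Throughout, for viability, T/C: spheroids also contain HUVEC endothelial cells and mesenchymal stem cells as stroma.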

Molecule `NC1c2ccccc2OC12CCN(c1cnc3c(N4CCCc5ncccc54)n[nH]c3n1)CC2` (stereo unspecified) + C#Cc1c(F)ccc2cc(O)cc(-c3ncc4c(N5CC6CCC(C5)N6)nc(OCC56CCCN5CC(F)C6)nc4c3F)c12 has an IC50 (curve of first compound, second compound 0.0316 µM) of under 31.6 nM, an IC50 (curve of first compound, second compound 0.1 µM) of 35.2 nM and an IC50 (curve of first compound, second compound 0.316 µM) of under 31.6 nM. For the same molecule, the IC50 (curve of first compound, second compound 1 µM) was under 31.6 nM, the IC50 (curve of first compound, second compound 3.16 µM) was under 31.6 nM and the IC50 (curve of first compound, second compound 10 µM) was under 31.6 nM. It also gave a viability, T/C (second compound 0.0316 µM, first compound 0.0316 µM) of 49.8%, a viability, T/C (second compound 0.0316 µM, first compound 0.1 µM) of 38.6% and a viability, T/C (second compound 0.0316 µM, first compound 0.316 µM) of 32.1%. For the same molecule, the viability, T/C (second compound 0.0316 µM, first compound 1 µM) was 19.2%, the viability, T/C (second compound 0.0316 µM, first compound 3.16 µM) was 16.3% and the viability, T/C (second compound 0.0316 µM, first compound 10 µM) was 9.96%. It also gave a viability, T/C (second compound 0.1 µM, first compound 0.0316 µM) of 50.6%, a viability, T/C (second compound 0.1 µM, first compound 0.1 µM) of 42.4% and a viability, T/C (second compound 0.1 µM, first compound 0.316 µM) of 26.2%. It also gave a viability, T/C (second compound 0.1 µM, first compound 1 µM) of 16.9%, a viability, T/C (second compound 0.1 µM, first compound 3.16 µM) of 14.2% and a viability, T/C (second compound 0.1 µM, first compound 10 µM) of 10.4%. It also gave a viability, T/C (second compound 0.316 µM, first compound 0.0316 µM) of 44%, a viability, T/C (second compound 0.316 µM, first compound 0.1 µM) of 35.5% and a viability, T/C (second compound 0.316 µM, first compound 0.316 µM) of 21.9%. For the same molecule, the viability, T/C (second compound 0.316 µM, first compound 1 µM) was 12.9%, the viability, T/C (second compound 0.316 µM, first compound 3.16 µM) was 12.2% and the viability, T/C (second compound 0.316 µM, first compound 10 µM) was 7.43%. It also gave a viability, T/C (second compound 1 µM, first compound 0.0316 µM) of 35%, a viability, T/C (second compound 1 µM, first compound 0.1 µM) of 31.7% and a viability, T/C (second compound 1 µM, first compound 0.316 µM) of 23.9%. For the same molecule, the viability, T/C (second compound 1 µM, first compound 1 µM) was 13.1%, the viability, T/C (second compound 1 µM, first compound 3.16 µM) was 12.5% and the viability, T/C (second compound 1 µM, first compound 10 µM) was 8.41%. It also gave a viability, T/C (second compound 3.16 µM, first compound 0.0316 µM) of 32.1%, a viability, T/C (second compound 3.16 µM, first compound 0.1 µM) of 25.3% and a viability, T/C (second compound 3.16 µM, first compound 0.316 µM) of 17.8%. The viability, T/C (second compound 3.16 µM, first compound 1 µM) was 11.1%, the viability, T/C (second compound 3.16 µM, first compound 3.16 µM) was 5.56% and the viability, T/C (second compound 3.16 µM, first compound 10 µM) was 3.9%. The viability, T/C (second compound 10 µM, first compound 0.0316 µM) was 21.3%, the viability, T/C (second compound 10 µM, first compound 0.1 µM) was 16% and the viability, T/C (second compound 10 µM, first compound 0.316 µM) was 5.5%. For the same molecule, the viability, T/C (second compound 10 µM, first compound 1 µM) was 4.22%, the viability, T/C (second compound 10 µM, first compound 3.16 µM) was 3.21% and the viability, T/C (second compound 10 µM, first compound 10 µM) was 1.47%.

`Nc1ccn(C2OC(CO)C(O)C2(F)F)c(=O)n1` (stereo unspecified) was tested, and the viability, T/C (compound 0.00316 µM) was 101% [middle of 4 runs], the viability, T/C (compound 0.01 µM) was 79% [middle of 4 runs] and the viability, T/C (compound 0.0316 µM) was 79.1% [middle of 4 runs]. For the same molecule, the viability, T/C (compound 0.1 µM) was 72.9% [middle of 4 runs], the viability, T/C (compound 0.316 µM) was 36.5% [middle of 4 runs] and the viability, T/C (compound 1 µM) was 16.2% [middle of 4 runs]. The IC50 (curve of compound) was 183 nM [middle of 4 runs].

With `CC(=O)OC12COC1CC(O)C1(C)C(=O)C(O)C3=C(C)C(OC(=O)C(O)C(NC(=O)OC(C)(C)C)c4ccccc4)CC(O)(C(OC(=O)c4ccccc4)C21)C3(C)C` (stereo unspecified) the viability, T/C (compound 0.0316 µM) was 38.4% [middle of 4 runs], the viability, T/C (compound 0.316 µM) was 27.9% [middle of 4 runs] and the viability, T/C (compound 1 µM) was 35% [middle of 4 runs]. The viability, T/C (compound 3.16 µM) was 42.6% [middle of 4 runs] and the IC50 (curve of compound) was under 31.6 nM.

For `C[C@@H](NC(=O)c1ncnc(N)c1Cl)c1ncc(C(=O)Nc2cc(C(F)(F)F)c(Cl)cn2)s1`, the viability, T/C (compound 10 µM) was 60.9% [middle of 4 runs] and the IC50 (curve of compound) was > 10000 nM and 5730 nM.
